Assay results published in PubChem BioAssay (NCI).
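Step 1: Grow cells in 96-well plates. Step 2: Expose to compound for 48 hours at 5 concentrations. Step 3: Interpolate endpoints linearly; if unreached, use highest concentration. At the GI50, growth is halved. Definition used: TGI = concentration required for complete inhibition of growth.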

Tests used:
Assay in all cases: NCI-60 cell line screen, 48 h
MOLT-4 leukemia = system: MOLT-4 leukemia
RXF 393 renal = system: RXF 393 renal
OVCAR-8 ovarian = system: OVCAR-8 ovarian
DU-145 prostate = system: DU-145 prostate
LOX IMVI melanoma = system: LOX IMVI melanoma
A549 NSCLC = system: A549 NSCLC
SK-MEL-2 melanoma = system: SK-MEL-2 melanoma
U251 CNS = system: U251 CNS
OVCAR-3 ovarian = system: OVCAR-3 ovarian
OVCAR-4 ovarian = system: OVCAR-4 ovarian
MCF7 breast = system: MCF7 breast
MALME-3M melanoma = system: MALME-3M melanoma
SNB-75 CNS = system: SNB-75 CNS
RPMI-8226 leukemia = system: RPMI-8226 leukemia
MDA-MB-231 breast = system: MDA-MB-231 breast
MDA-MB-435 = system: MDA-MB-435
BT-549 breast = system: BT-549 breast
IGROV1 ovarian = system: IGROV1 ovarian
SK-MEL-28 melanoma = system: SK-MEL-28 melanoma
786-0 renal = system: 786-0 renal
HL-60(TB) leukemia = system: HL-60(TB) leukemia
SK-MEL-5 melanoma = system: SK-MEL-5 melanoma
HCC-2998 colon = system: HCC-2998 colon
HT29 colon = system: HT29 colon
UACC-257 melanoma = system: UACC-257 melanoma
CCRF-CEM leukemia = system: CCRF-CEM leukemia
M14 melanoma = system: M14 melanoma
SW-620 colon = system: SW-620 colon
OVCAR-5 ovarian = system: OVCAR-5 ovarian
CAKI-1 renal = system: CAKI-1 renal
EKVX NSCLC = system: EKVX NSCLC
HOP-92 NSCLC = system: HOP-92 NSCLC
T-47D breast = system: T-47D breast
NCI-H522 lung = system: NCI-H522 lung
KM12 colon = system: KM12 colon
A498 renal = system: A498 renal
SF-295 CNS = system: SF-295 CNS
SF-268 CNS = system: SF-268 CNS
UO-31 renal = system: UO-31 renal
SNB-19 CNS = system: SNB-19 CNS
ACHN renal = system: ACHN renal
HCT-15 colon = system: HCT-15 colon
NCI-H226 lung = system: NCI-H226 lung
HCT-116 colon = system: HCT-116 colon
SR leukemia = system: SR leukemia
PC-3 prostate = system: PC-3 prostate
K-562 leukemia = system: K-562 leukemia
NCI-H460 lung = system: NCI-H460 lung
SN12C renal = system: SN12C renal
NCI-H23 lung = system: NCI-H23 lung
COLO 205 colon = system: COLO 205 colon
SF-539 CNS = system: SF-539 CNS
SK-OV-3 ovarian = system: SK-OV-3 ovarian
HS 578T breast = system: HS 578T breast
NCI/ADR-RES ovarian = system: NCI/ADR-RES ovarian
TK-10 renal = system: TK-10 renal
HOP-62 NSCLC = system: HOP-62 NSCLC

`O=C(/C=C/c1c(-c2ccccc2)[nH]c2ccccc12)S(=O)(=O)c1ccccc1` showed a GI50 (MOLT-4 leukemia) of 4.78 µM, a TGI (MOLT-4 leukemia) of over 100 µM and a GI50 (RXF 393 renal) of 9.34 µM. It also gave a TGI (RXF 393 renal) of 67.1 µM, a GI50 (OVCAR-8 ovarian) of 53.6 µM and a TGI (OVCAR-8 ovarian) of over 100 µM. The GI50 (DU-145 prostate) was 7.54 µM, the TGI (DU-145 prostate) was over 100 µM and the GI50 (LOX IMVI melanoma) was over 100 µM. It also gave a TGI (LOX IMVI melanoma) of over 100 µM, a GI50 (A549 NSCLC) of 24.9 µM and a TGI (A549 NSCLC) of over 100 µM. For the same compound, the GI50 (SK-MEL-2 melanoma) was 78.6 µM, the TGI (SK-MEL-2 melanoma) was over 100 µM and the GI50 (U251 CNS) was 40.3 µM. For the same compound, the TGI (U251 CNS) was over 100 µM, the GI50 (OVCAR-3 ovarian) was 4.23 µM and the TGI (OVCAR-3 ovarian) was over 100 µM. For the same compound, the GI50 (OVCAR-4 ovarian) was 4.48 µM, the TGI (OVCAR-4 ovarian) was over 100 µM and the GI50 (MCF7 breast) was 3.09 µM. It also gave a TGI (MCF7 breast) of over 100 µM, a GI50 (MALME-3M melanoma) of 8.11 µM and a TGI (MALME-3M melanoma) of over 100 µM. For the same compound, the GI50 (SNB-75 CNS) was 3.96 µM, the TGI (SNB-75 CNS) was over 100 µM and the GI50 (RPMI-8226 leukemia) was 13.3 µM. For the same compound, the TGI (RPMI-8226 leukemia) was over 100 µM, the GI50 (MDA-MB-231 breast) was 16.6 µM and the TGI (MDA-MB-231 breast) was over 100 µM. For the same compound, the GI50 (MDA-MB-435) was 1.73 µM, the TGI (MDA-MB-435) was 5.07 µM and the GI50 (BT-549 breast) was 5.33 µM. It also gave a TGI (BT-549 breast) of over 100 µM, a GI50 (IGROV1 ovarian) of 24.3 µM and a TGI (IGROV1 ovarian) of over 100 µM. It also gave a GI50 (SK-MEL-28 melanoma) of 27.1 µM, a TGI (SK-MEL-28 melanoma) of over 100 µM and a GI50 (786-0 renal) of 52.6 µM. The TGI (786-0 renal) was over 100 µM, the GI50 (HL-60(TB) leukemia) was 5.6 µM and the TGI (HL-60(TB) leukemia) was 98.7 µM. The GI50 (SK-MEL-5 melanoma) was 4.38 µM, the TGI (SK-MEL-5 melanoma) was over 100 µM and the GI50 (HCC-2998 colon) was 17.5 µM. For the same compound, the TGI (HCC-2998 colon) was over 100 µM, the GI50 (HT29 colon) was 3.76 µM and the TGI (HT29 colon) was over 100 µM. It also gave a GI50 (UACC-257 melanoma) of over 100 µM, a TGI (UACC-257 melanoma) of over 100 µM and a GI50 (CCRF-CEM leukemia) of 5.41 µM. The TGI (CCRF-CEM leukemia) was over 100 µM, the GI50 (M14 melanoma) was 5.86 µM and the TGI (M14 melanoma) was over 100 µM. The GI50 (SW-620 colon) was 5.1 µM, the TGI (SW-620 colon) was over 100 µM and the GI50 (OVCAR-5 ovarian) was over 100 µM. For the same compound, the TGI (OVCAR-5 ovarian) was over 100 µM, the GI50 (CAKI-1 renal) was 6.42 µM and the TGI (CAKI-1 renal) was over 100 µM. It also gave a GI50 (EKVX NSCLC) of 4.37 µM, a TGI (EKVX NSCLC) of over 100 µM and a GI50 (HOP-92 NSCLC) of 16.3 µM. The TGI (HOP-92 NSCLC) was over 100 µM, the GI50 (T-47D breast) was 2.5 µM and the TGI (T-47D breast) was over 100 µM. The GI50 (NCI-H522 lung) was 6.11 µM, the TGI (NCI-H522 lung) was over 100 µM and the GI50 (KM12 colon) was 2.03 µM. The TGI (KM12 colon) was over 100 µM, the GI50 (A498 renal) was 2.2 µM and the TGI (A498 renal) was 87.8 µM. It also gave a GI50 (SF-295 CNS) of 0.818 µM, a TGI (SF-295 CNS) of over 100 µM and a GI50 (SF-268 CNS) of 6.24 µM. It also gave a TGI (SF-268 CNS) of over 100 µM, a GI50 (UO-31 renal) of over 100 µM and a TGI (UO-31 renal) of over 100 µM. The GI50 (SNB-19 CNS) was 35.7 µM, the TGI (SNB-19 CNS) was over 100 µM and the GI50 (ACHN renal) was 39.8 µM. It also gave a TGI (ACHN renal) of over 100 µM, a GI50 (HCT-15 colon) of 6.42 µM and a TGI (HCT-15 colon) of over 100 µM. For the same compound, the GI50 (NCI-H226 lung) was over 100 µM, the TGI (NCI-H226 lung) was over 100 µM and the GI50 (HCT-116 colon) was 4.81 µM. For the same compound, the TGI (HCT-116 colon) was over 100 µM, the GI50 (SR leukemia) was 2.42 µM and the TGI (SR leukemia) was 6.72 µM. The GI50 (PC-3 prostate) was 8.15 µM, the TGI (PC-3 prostate) was over 100 µM and the GI50 (K-562 leukemia) was 3.7 µM. The TGI (K-562 leukemia) was over 100 µM, the GI50 (NCI-H460 lung) was 3.7 µM and the TGI (NCI-H460 lung) was over 100 µM. The GI50 (SN12C renal) was over 100 µM, the TGI (SN12C renal) was over 100 µM and the GI50 (NCI-H23 lung) was 13.6 µM. It also gave a TGI (NCI-H23 lung) of over 100 µM, a GI50 (COLO 205 colon) of 6 µM and a TGI (COLO 205 colon) of over 100 µM. For the same compound, the GI50 (SF-539 CNS) was 17.5 µM, the TGI (SF-539 CNS) was over 100 µM and the GI50 (SK-OV-3 ovarian) was 23.5 µM. For the same compound, the TGI (SK-OV-3 ovarian) was over 100 µM, the GI50 (HS 578T breast) was 10.1 µM and the TGI (HS 578T breast) was over 100 µM. The GI50 (NCI/ADR-RES ovarian) was 3.19 µM, the TGI (NCI/ADR-RES ovarian) was 53.6 µM and the GI50 (TK-10 renal) was 74 µM. For the same compound, the TGI (TK-10 renal) was over 100 µM, the GI50 (HOP-62 NSCLC) was 29.9 µM and the TGI (HOP-62 NSCLC) was over 100 µM.
